A value given as a limit tells only on which side of the number the result lay.

The text below walks through data of patent US20120214734A1, “TREATMENT OF METABOLIC DISORDERS” (priority 2011, published 2012).

Assay type in all cases: in vivo, human
A short description of data set [1]: Retrospective screen of chronic-care charts of obese hypertensive prisoners: random serum glucose, fasting lipid panel, blood pressure, weight. Conditions: for dose-dependent effects: chart study, discussion. The text has this: One-hundred ten (110) patient charts in chronic care for hypertension at an 1800-capacity prison were initially screened. The data included age, weight, height, ethnicity, medications, lipid panel results for glucose, triglycerides and HDL-C, and blood pressure. All known or previously diagnosed diabetics were excluded from the study.
For cases involving ACE inhibitor plus simvastatin, further analysis included evaluation of total cholesterol and calculated low density lipoprotein (LDL-C).
In order to evaluate the effects of simvastatin without ACE inhibitor, 5 additional charts were screened (increasing n to 13).
The data were analyzed with respect to random serum lab values including random serum glucose and fasting lipid panel (which included total cholesterol, HDL-C, TG, and the calculated LDL-C). […] In addition, a few charts were evaluated for temporal changes spanning chronic care visits including weight, mean arterial blood pressure, medication adjustments, and random serum values of HDL-C, triglycerides, and glucose. A two-tailed student t test was used to test for significance between 2 sample means. Linear regression analysis with F statistic was used to obtain goodness of fit. Only coefficients of determination (r2) of 0.1 or greater were reported. […] The level of significance used was a probability (P)<0.05.

A short description of data set [2]: Example 3: ACE inhibitor given to severely obese person with low HDL-C. The conditions noted are these: 75 mg/day, after 1 year; baseline 25 mg/dL. The procedure:
A person presents with normal blood pressure (125/85), normal fasting glucose (105 mg/dL), and normal triglyceride (145 mg/dL). They are severely obese with a BMI of 40. […] The patient is considered to be at significant risk of developing metabolic syndrome and/or cardiovascular disease later in life. They are advised of the risk and of the beneficial effects of losing weight. After 1 year the patient advises that despite strenuous effects to lose weight, including dieting and exercise, their bodyweight remains the same. They are prescribed Captopril, 75 mg/day.

Data set [3] can be described thus: Example 2: ACE inhibitor given to non-obese person with low HDL-C. Conditions: 10 mg/day, after 1 year; baseline 30 mg/dL; without concomitant weight loss or lifestyle changes. The procedure:
A non-obese person presents for physical examination. […] The patient's parent is on anti-hypertension and anti-lipemic medications. The patient's older sibling is obese, hypertensive, and is being treated for coronary artery disease including recent placement of a cardiac stent for primary coronary artery blockage. […] Given the patients family history and low HDL-C […] risk of developing one or more metabolic conditions is considered high. They are prescribed Lisinopril, 10 mg/day.

The mark [4] stands for this setting: FIG. 7, upper limit of normal daily dosages.
[5] abbreviates: one individual over 44 months (FIG. 3), captopril from 24 months, no anti-lipemic agent.
The mark [6] stands for this setting: FIG. 5A, controls without ACE inhibitor (with and without Hctz).

`CCOC(=O)[C@H](CCc1ccccc1)N[C@@H](C)C(=O)N1CCC[C@H]1C(=O)O` [enalapril]: in data set [1] (setting [4]), the “mean HDL-C” value is recorded as “parallel increases”, the mean glucose entry is given as “parallel decreases” and the mean triglyceride entry is reported as “parallel decreases”.

For the compound `C[C@H](CS)C(=O)N1CCC[C@H]1C(=O)O` [captopril], the “triglyceride, dose effect” value in data set [1] (FIG. 6B) is reported as “significant (P <0.02) dose-dependent decrease”. In data set [1] (setting [4]), the “mean HDL-C” value is reported as “parallel increases”, the mean glucose result was “parallel decreases” and the mean triglyceride result is given as “parallel decreases”. Further, the dose-dependent effects result in data set [1] is reported as “dose-dependent effects”. Moreover, the HDL-C result in data set [1] (one individual followed over 44 months (FIG. 3), captopril introduced at 24 months, atenolol and hydrochlorothiazide discontinued, no anti-lipemic agent) was “increased”. Also, in data set [1] (setting [5]), the glucose result is on record as “decreased”, the “mean arterial blood pressure” value is given as “decreased” and the serum triglyceride result is “decreased”. This compound also came in with an HDL-C levels in data set [2] of 30 mg/dL.

As to `NS(=O)(=O)c1cc2c(cc1Cl)NCNS2(=O)=O` [Hctz, Hydrochlorothiazide], in data set [1] (FIG. 5A, controls without ACE inhibitor (stated for both controls, with and without Hctz)), the mean glucose is more than 110 mg/dL. In data set [1] (setting [6]), the “mean HDL-C” value was less than 42 mg/dL and the mean triglyceride was more than 159 mg/dL. The “random serum glucose with age” value in data set [1] (FIG. 5C, absence of ACE inhibitor) is recorded as “caused an age-related increase”. In addition, the “mean glucose +/-SEM” value in data set [1] (presence of Hctz, n=15, no ACE inhibitor, no anti-lipemic) is 105.8 ± 5.4 mg/dL. For the same compound, the insulin-resistant state result in data set [1] (with vs without Hctz, no ACE inhibitor) is listed as “did not improve”.

Take `NCCCC[C@H](N[C@@H](CCc1ccccc1)C(=O)O)C(=O)N1CCC[C@H]1C(=O)O` [lisinopril]: the “dose effects with glucose, triglyceride and HDL-C” value in data set [1] (20 and 40 mg/day) is listed as “occurred”. Besides, the “HDL-C, dose effect” value in data set [1] (FIG. 6A) is recorded as “significant (P<0.05) dose-dependent increase”. In data set [1] (setting [4]), the “mean HDL-C” value is “parallel increases”, the mean glucose entry is “parallel decreases” and the mean triglyceride result is reported as “parallel decreases”. In addition, the dose-dependent effects entry in data set [1] is recorded as “dose-dependent effects”. The HDL-C levels entry in data set [3] is given as “have risen”.

Turning to `C[C@H](N[C@@H](CCc1ccccc1)C(=O)O)C(=O)N1CCC[C@H]1C(=O)O` [enalaprilat], in data set [1] (compared with captopril, at presumptive therapeutically equivalent antihypertensive dosages), the “potency at preventing insulin resistance” value is “less potent”.
